These results are taken from PMC11432330, “Novel Drug-like HsrA Inhibitors Exhibit Potent Narrow-Spectrum Antimicrobial Activities against Helicobacter pylori” (International Journal of Molecular Sciences, 2024).

≈ marks a conversion by molar mass, not a printed value. Where two headings read alike, the source gives them in different places.

The subject of one data set is H. pylori. Further details: method as in PMID 31383920, PMID 34354964. Particulars: ref [40],[70]; cited from earlier work.
The subject of data set [1] is H. pylori ATCC 700392 (26695). The data set can be described thus: MIC/MBC, broth microdilution. The class given is cell-based, Helicobacter pylori. Conditions: H. pylori ATCC 700392 (26695). As to the method:
(§1) The antimicrobial activity of the HsrA inhibitors was evaluated by the determination of the minimal inhibitory concentration (MIC) against four different strains of H. pylori: ATCC 700392 (aka 26695), ATCC 43504 (MTZ-resistant reference strain), ATCC 700684 (CLR-resistant reference strain), and Donostia 2 (LVX-resistant clinical isolate). The MICs were determined by the broth microdilution method, as previously described. Briefly, H. pylori strains were grown in blood agar at 37 °C for 72 h under microaerobic conditions. Fresh inoculums adjusted at OD600 = 0.01 [~10^6 colony forming units (CFU) per mL] in BHI broth supplemented with 4% fetal bovine serum (BHI + FBS) were prepared and immediately exposed to final concentrations between 64 and 0.031 mg/L of each compound of interest. The compound solvent (DMSO) as well as conventional antibiotics (MTZ, CLR, LVX) were included as controls. […] Each experiment was performed twice in triplicate. The MIC and MBC values of the selected compounds against C. jejuni ATCC 33560 were determined by using the same method and culture conditions described for the H. pylori strains.

In data set [2] the test system is H. pylori ATCC 43504 (MTZ-R). The data set can be described thus: MIC/MBC, broth microdilution. The class given is cell-based, Helicobacter pylori. Conditions: H. pylori ATCC 43504 (MTZ-R). As to the method:
as §1

For data set [3], the system named is H. pylori Donostia 2 (LVX-R). The data set can be described thus: MIC/MBC, broth microdilution. The format is cell-based, Helicobacter pylori. Particulars: H. pylori Donostia 2 (LVX-R). As to the method: as §1
The subject of data set [4] is H. pylori ATCC 700684 (CLR-R). The data set can be described thus: MIC/MBC, broth microdilution. The class given is cell-based, Helicobacter pylori. On the procedure:
as §1
(In general: In broth dilution the organism is exposed to a series of concentrations in liquid medium.)

The test system of data set [5] is K. pneumoniae ATCC 700603. The data set can be described thus: MIC/MBC according to EUCAST guidelines. The format is cell-based, Klebsiella pneumonia. Particulars: Klebsiella pneumoniae, ATCC700603. On the procedure: (§2) The antimicrobial activities of the selected compounds against several Gram-negative and Gran-positive representative species of normal human microbiota were determined according to the EUCAST guidelines. Briefly, standardized inoculums (0.5 McFarland) were freshly prepared from overnight Mueller–Hinton agar plates of reference strains E. coli ATCC 25922, K. pneumonia ATCC 700603, E. faecalis ATCC 29212, S. aureus ATCC 29213, S. epidermidis ATCC 12228, and S. agalactiae ATCC 12386. Next, bacterial suspensions adjusted to 5 × 10^5 CFU/mL in Mueller–Hinton broth were exposed to a range of concentrations from 64 to 0.031 mg/L of the selected compounds. DMSO and conventional antibiotics LVX and AMP were included as controls. […] Experiments were performed twice in triplicate.

The subject of another data set is C. jejuni ATCC 33560. Kind of data set: MIC/MBC, broth microdilution. The format is cell-based. Conditions: Campylobacter jejuni, ATCC33560, C. jejuni ATCC 33560. On the procedure:
as §1

The test system of data set [6] is T1, HsrA (Helicobacter pylori 26695), ORF:12bb3c8f.
T1 sequence: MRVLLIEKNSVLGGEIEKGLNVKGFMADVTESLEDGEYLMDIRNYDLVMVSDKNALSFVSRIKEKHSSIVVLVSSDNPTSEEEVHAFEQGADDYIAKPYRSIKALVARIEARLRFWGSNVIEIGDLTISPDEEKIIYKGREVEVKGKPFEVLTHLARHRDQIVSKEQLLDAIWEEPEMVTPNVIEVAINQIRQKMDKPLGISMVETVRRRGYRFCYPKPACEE
Kind of data set: EMSA. Particulars: EMSA: 10 mM bis-Tris pH 7.5, 40 mM KCl, 100 mg/L BSA, 1 mM DTT, 5% glycerol; room temperature 20 min; 6% native gel, SYBR Safe.

A further data set deals with S. agalactiae ATCC 12386. Kind of data set: MIC/MBC according to EUCAST guidelines. The format is cell-based. Particulars: Streptococcus agalactiae, ATCC12386. On the procedure: as §2
For data set [7], the system named is S. epidermidis ATCC 12228. The data set can be described thus: MIC/MBC according to EUCAST guidelines. The format is cell-based. Conditions: Staphylococcus epidermidis, ATCC12228. On the procedure:
as §2

A further data set concerns S. aureus ATCC 29213. The data set can be described thus: MIC/MBC according to EUCAST guidelines. The class given is cell-based. Conditions: Staphylococcus aureus, ATCC29213. On the procedure: as §2
The next data set deals with E. coli ATCC 25922. Kind of data set: MIC/MBC according to EUCAST guidelines. The format is cell-based. Particulars: Escherichia coli, ATCC25922. On the procedure: as §2
For the next data set, the system named is E. faecalis ATCC 29212. The data set can be described thus: MIC/MBC according to EUCAST guidelines. The format is cell-based. Conditions: Enterococcus faecalis, ATCC29212. On the procedure: as §2
Where [8] appears, read: Helicobacter pylori, ATCC700392, read-out: MBC.
The mark [9] stands for this setting: Helicobacter pylori, ATCC700392, read-out: MIC.
Where [10] appears, read: Helicobacter pylori, ATCC43504, read-out: MBC.
The mark [11] stands for this setting: Helicobacter pylori, ATCC43504, read-out: MIC.
The mark [12] stands for this setting: Helicobacter pylori, read-out: MBC.
The mark [13] stands for this setting: Helicobacter pylori, read-out: MIC.
Where [14] appears, read: Helicobacter pylori, ATCC700684, read-out: MBC.
The mark [15] stands for this setting: Helicobacter pylori, ATCC700684, read-out: MIC.

`COc1ccc([C@@H]2CC(=O)c3c(O)cc(O)cc3O2)cc1O` [hesperetin]: the “Combinatory action with clarithromycin or metronidazole against H. pylori” value in the data set with H. pylori was “strong synergistic bactericidal action”.

`CC[C@H]1OC(=O)[C@H](C)[C@@H](O[C@H]2C[C@@](C)(OC)[C@@H](O)[C@H](C)O2)[C@H](C)[C@@H](O[C@@H]2O[C@H](C)C[C@H](N(C)C)[C@H]2O)[C@](C)(OC)C[C@@H](C)C(=O)[C@H](C)[C@@H](O)[C@]1(C)O` [CLR, clarithromycin, reference compound]: the MBC (commonly the lowest tested concentration that kills the bacteria rather than only halting them) in data set [1] (setting [8]) is below 0.03 µg/mL; in data set [2] (setting [10]) it was below 0.03 µg/mL; in [3] (setting [12]) it was below 0.03 µg/mL; in data set [4] (setting [14]), 32 µg/mL (≈ 42.8 µM). Also, the MIC (as a rule, the lowest concentration that inhibits growth of the organism) in data set [1] (setting [9]) was below 0.03 µg/mL; in data set [2] (setting [11]) it was below 0.03 µg/mL; in data set [3] (setting [13]) it was below 0.03 µg/mL; in [4] (setting [15]), 16 µg/mL (≈ 21.4 µM).

On to `Cc1oc2ccccc2c1CC(=O)NNC(=S)Nc1cccc(C(F)(F)F)c1` [Ligand X], for which the MBC is 16 µg/mL (≈ 39.3 µM) in data set [1], 8 µg/mL (≈ 19.6 µM) in [2], 16 µg/mL (≈ 39.3 µM) in data set [3] and 8 µg/mL (≈ 19.6 µM) in [4]. For the same compound, the MIC in [1], in [2], in data set [3] and in [4] was 8 µg/mL (≈ 19.6 µM) each time.

Consider `O=c1cc(-c2ccccc2)oc2cc(O)cc(O)c12` [chrysin], for which the “Combinatory action with clarithromycin or metronidazole against H. pylori” value with H. pylori was “strong synergistic bactericidal action”.

`C[C@H]1COc2c(N3CCN(C)CC3)c(F)cc3c(=O)c(C(=O)O)cn1c23` [LVX, levofloxacin, reference compound]: the MBC in data set [1] (setting [8]) was 0.12 µg/mL (≈ 0.332 µM); in data set [2] (setting [10]), 0.5 µg/mL (≈ 1.38 µM); in data set [3] (setting [12]), 32 µg/mL (≈ 88.6 µM); in [4] (setting [14]), 0.12 µg/mL (≈ 0.332 µM); in data set [5], 0.5 µg/mL (≈ 1.38 µM); against C. jejuni ATCC 33560 it was below 0.12 µg/mL. Besides, the MIC in [1] (setting [9]) is 0.12 µg/mL (≈ 0.332 µM); in data set [2] (setting [11]) it was 0.5 µg/mL (≈ 1.38 µM); in data set [3] (setting [13]), 16 µg/mL (≈ 44.3 µM); in [4] (setting [15]), 0.12 µg/mL (≈ 0.332 µM); in data set [5], 0.5 µg/mL (≈ 1.38 µM); against C. jejuni ATCC 33560, below 0.12 µg/mL.

Take `Cc1ncc([N+](=O)[O-])n1CCO` [MTZ, metronidazole, reference compound]: the MBC in [1] (setting [8]) came out at 2 µg/mL (≈ 11.7 µM); in [2] (setting [10]), 128 µg/mL (≈ 748 µM); in data set [3] (setting [12]), 8 µg/mL (≈ 46.7 µM); in data set [4] (setting [14]), 2 µg/mL (≈ 11.7 µM). Moreover, the minimum inhibitory concentration (MIC) in data set [1] (setting [9]) amounted to 1 µg/mL (≈ 5.84 µM); in [2] (setting [11]), 64 µg/mL (≈ 374 µM); in data set [3] (setting [13]), 8 µg/mL (≈ 46.7 µM); in data set [4] (setting [15]) it was 1 µg/mL (≈ 5.84 µM).

Take “CCCCACACTTGCCCCATACAGACTAAAATCAAATCACACCTTAAATAATAACAAAGTTTAAAATAAATATTAGTGGTTTTTATTAAGAACGCTTGTCTTTTTAGAATAAATGGCCATAAAATAGCCATAATTCTTGTAGGTATGCCCCCATTTTCCTATAAAAATTCCTAAAAAGATATTGTTATAAGACACATTAATAGTTTTTCTTGTATAATTCTAGGCTGAATTCAATTTATTTTATACGATATTAAGGAGACATATTACCATGTTTCAAATTAGATGGCATGC (double strand) [PporG (porGDAB promoter)]”: the binding entry in data set [6] is listed as “binds”.

As for `Cc1sc2c(c1C)C(O)=C(C(=O)Nc1ccc(OC(F)(F)F)cc1)S(=O)(=O)N2C` [Ligand XXVIII], the MBC turned out to be 64 µg/mL (≈ 143 µM) in data set [1], 16 µg/mL (≈ 35.7 µM) in data set [2], 32 µg/mL (≈ 71.4 µM) in data set [3] and 32 µg/mL (≈ 71.4 µM) in data set [4]. For the same compound, the MIC came out at 32 µg/mL (≈ 71.4 µM) in data set [1], 16 µg/mL (≈ 35.7 µM) in data set [2], 32 µg/mL (≈ 71.4 µM) in data set [3] and 32 µg/mL (≈ 71.4 µM) in data set [4].

As for `CC(=O)Nc1cc(C(=O)c2cccs2)nn(-c2ccc(Cl)cc2)c1=O` [Ligand XXXI], the MBC was above 64 µg/mL in data set [1], 64 µg/mL (≈ 171 µM) in data set [2], above 64 µg/mL in data set [3] and above 64 µg/mL in data set [4]. The MIC in data set [1] is above 64 µg/mL; in [2], 64 µg/mL (≈ 171 µM); in data set [3], above 64 µg/mL; in data set [4] it was above 64 µg/mL.

Take `NC(Cn1ccc(C(F)(F)F)n1)=NOC(=O)Nc1ccc(SC(F)(F)F)cc1` [Ligand IX]: the minimal bactericidal concentration (MBC) in [1] is 16 µg/mL (≈ 37.4 µM); in data set [2], 8 µg/mL (≈ 18.7 µM); in [3], 16 µg/mL (≈ 37.4 µM); in [4], 8 µg/mL (≈ 18.7 µM). Moreover, the MIC is 8 µg/mL (≈ 18.7 µM) in [1], 4 µg/mL (≈ 9.36 µM) in [2], 8 µg/mL (≈ 18.7 µM) in [3] and 4 µg/mL (≈ 9.36 µM) in data set [4].

`CCOC(=O)c1ccc(-n2nnc(C=CC=CN3CCOCC3)n2)cc1` [Ligand XVII]: the MBC stood at 16 µg/mL (≈ 45 µM) in data set [1], 8 µg/mL (≈ 22.5 µM) in data set [2], 8 µg/mL (≈ 22.5 µM) in [3] and 8 µg/mL (≈ 22.5 µM) in data set [4]. The MIC stood at 16 µg/mL (≈ 45 µM) in data set [1], 4 µg/mL (≈ 11.3 µM) in data set [2], 8 µg/mL (≈ 22.5 µM) in [3] and 8 µg/mL (≈ 22.5 µM) in data set [4].

Regarding `CC1(C)S[C@@H]2[C@H](NC(=O)[C@H](N)c3ccccc3)C(=O)N2[C@H]1C(=O)O` [AMP, ampicillin, reference compound], the MBC was 0.5 µg/mL (≈ 1.43 µM) in the data set on S. agalactiae ATCC 12386; 4 µg/mL (≈ 11.4 µM) in data set [7]; 4 µg/mL (≈ 11.4 µM) in the data set with S. aureus ATCC 29213; 4 µg/mL (≈ 11.4 µM) with E. coli ATCC 25922; 4 µg/mL (≈ 11.4 µM) against E. faecalis ATCC 29212. Also, the minimal inhibitory concentration (MIC) in the data set with S. agalactiae ATCC 12386 came to 0.25 µg/mL (≈ 0.715 µM); in data set [7] it was 4 µg/mL (≈ 11.4 µM); with S. aureus ATCC 29213, 2 µg/mL (≈ 5.72 µM); with E. coli ATCC 25922, 4 µg/mL (≈ 11.4 µM); against E. faecalis ATCC 29212, 4 µg/mL (≈ 11.4 µM).
